Patent US20130178475A1, “sGC STIMULATORS” (IRONWOOD PHARMACEUTICALS, INC., priority 2010, published 2013)

Legend:
thoracic aortic rings = experiment: Thoracic aortic rings assay; conditions: relaxation of male Sprague-Dawley rat aortic rings contracted with 100 ng/mL phenylephrine; read-out: EC50, thoracic aortic ring assay activity
Protocol: Thoracic aortic rings were dissected from anesthetized (isoflurane) male Sprague-Dawley rats weighing 275-299 g. Tissues were immediately transferred to ice-cold Krebs-Henseleit solution, which had been aerated with 95% O2 and 5% CO2 for 30 minutes. Following removal of connective tissue, aortic sections were cut into 4 rings (˜2 mm each) and suspended on 2 L-shaped hooks, with one hook fixed at the bottom of the tissue bath (Schuler Organ Bath, Harvard Apparatus) and the other connected to a force transducer (F30 Force Transducer, Harvard Apparatus). Baths contained Krebs Henseleit solution (10 mL) heated to 37° C. and aerated with 95% O2 and 5% CO2. Rings were brought to an initial tension of 0.3-0.5 g and gradually raised to a resting tension of 1.0 g over 60 minutes. Rings were rinsed with Krebs Henseleit solution (heated to 37° C. and aerated with 95% O2 and 5% CO2) at 15 minute intervals until a stable baseline was obtained. Rings were considered to be stable after a resting tension of 1.0 g was maintained (for approximately 10 minutes) without need for adjustment. Rings were then contracted with 100 ng/mL phenylephrine by adding 100 uL of a […] phenylephrine stock solution. Tissues achieving a stable contraction were then treated in a cumulative, dose dependent manner with test compounds prepared in dimethylsulfoxide (DMSO). In some cases, tissues were rinsed three times over a 5 minute period with Krebs-Heinseleit's solution (heated to 37° C. and aerated with 95% O2 and 5% CO2), allowed to stabilize at baseline, and then used for characterization of other test articles or DMSO effects. All data were collected using the HSE-ACAD software provided by Harvard Apparatus. Percent relaxation effects were calculated in Microsoft Excel using the recorded tension value of 100 ng/mL phenylephrine treatment as 0% inhibition and treatment with 100 μM 3-isobutyl-1-methylxanthine as 100% inhibition. EC50 values were calculated from concentration-response curves generated with GraphPad Prism Software.

[1] = target: T1, soluble guanylate cyclase (sGC) (Homo sapiens, UniProt Q02108+Q02153); experiment: sGC-HEK-cGMP assay; assay type: cell-based; conditions: HEK293 cells, 10 min incubation, intracellular cGMP by LC/MS; for Increase in cGMP Concentration Tested at 10 μM in HEK Assay: test compound 10 μM; for Increase in cGMP Concentration Tested at 30 μM in HEK Assay: test compound 30 μM
T1 construct: endogenously expressing soluble guanylate cyclase (sGC); endogenous in cells; host or cells: HEK293
T1 sequence (Q02153 1-619): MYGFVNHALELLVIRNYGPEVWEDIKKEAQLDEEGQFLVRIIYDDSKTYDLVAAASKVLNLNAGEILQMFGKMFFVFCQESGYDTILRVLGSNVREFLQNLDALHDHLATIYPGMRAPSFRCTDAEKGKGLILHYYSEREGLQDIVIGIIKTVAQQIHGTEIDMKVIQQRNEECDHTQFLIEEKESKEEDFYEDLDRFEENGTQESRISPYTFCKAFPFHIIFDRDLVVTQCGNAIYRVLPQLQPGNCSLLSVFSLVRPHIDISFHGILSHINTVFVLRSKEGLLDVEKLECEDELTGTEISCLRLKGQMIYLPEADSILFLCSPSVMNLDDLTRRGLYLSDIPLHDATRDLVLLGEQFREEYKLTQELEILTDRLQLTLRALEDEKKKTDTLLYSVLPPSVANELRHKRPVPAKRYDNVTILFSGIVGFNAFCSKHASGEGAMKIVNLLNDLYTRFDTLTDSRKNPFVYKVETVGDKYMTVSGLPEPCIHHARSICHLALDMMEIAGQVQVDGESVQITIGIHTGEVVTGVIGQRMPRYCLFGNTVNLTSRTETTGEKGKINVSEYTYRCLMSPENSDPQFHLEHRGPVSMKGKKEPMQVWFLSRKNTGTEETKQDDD
T1 sequence (Q02108 1-690): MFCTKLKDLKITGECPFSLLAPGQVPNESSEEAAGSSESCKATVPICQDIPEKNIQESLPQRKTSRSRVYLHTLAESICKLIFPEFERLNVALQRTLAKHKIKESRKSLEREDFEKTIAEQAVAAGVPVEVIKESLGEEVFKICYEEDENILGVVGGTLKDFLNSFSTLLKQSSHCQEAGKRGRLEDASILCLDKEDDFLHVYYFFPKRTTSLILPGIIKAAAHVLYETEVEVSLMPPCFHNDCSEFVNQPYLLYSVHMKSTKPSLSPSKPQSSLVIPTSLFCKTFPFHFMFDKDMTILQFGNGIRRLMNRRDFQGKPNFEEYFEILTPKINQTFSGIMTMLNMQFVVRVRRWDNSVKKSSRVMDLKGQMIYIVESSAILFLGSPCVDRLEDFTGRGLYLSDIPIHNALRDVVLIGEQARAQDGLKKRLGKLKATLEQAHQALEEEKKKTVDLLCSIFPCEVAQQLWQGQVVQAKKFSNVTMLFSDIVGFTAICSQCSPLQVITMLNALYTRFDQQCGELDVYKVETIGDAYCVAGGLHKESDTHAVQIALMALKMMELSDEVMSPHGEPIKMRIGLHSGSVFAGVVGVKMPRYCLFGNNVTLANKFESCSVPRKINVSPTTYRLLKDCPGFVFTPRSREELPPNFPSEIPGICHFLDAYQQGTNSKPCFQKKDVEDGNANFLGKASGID

Compound | EC50 (thoracic aortic rings) | Increase in cGMP Concentration Tested at 10 μM in HEK Assay [1] | Increase in cGMP Concentration Tested at 30 μM in HEK Assay [1]
Fc1ccccc1Cn1nc(-c2ncccn2)c2c1CCCC2 [Compound I-1] | 1300 nM | D (D represents an increase ranging from 20 fold to less than 50 fold) | D (D represents an increase ranging from 20 fold to less than 50 fold)
Nc1ccnc(-c2nn(Cc3ccccc3F)c3c2CCC3)n1 [Compound I-3] | 1200 nM | D (D represents an increase ranging from 20 fold to less than 50 fold) | E (E represents an increase ranging from 50 fold to less than 100 fold)
